Measurements reported in PubChem BioAssay (NCI).
Several values for one entry are separate records, joined by “and”; a condition that tells them apart may be missing. Equal values may be shown once.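 Protocol summary: plate cells (96-well), add compound at 5 concentrations, incubate 48 h, interpolate endpoints linearly. GI50 is the concentration that inhibits growth by half. TGI is the concentration that stops growth completely.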

Columns and labels:
Assay in all cases: NCI anticancer screen, dose series, 48 h
DMS 114 small cell lung = system: DMS 114 small cell lung
DMS 273 small cell lung = system: DMS 273 small cell lung
LOX IMVI melanoma = system: LOX IMVI melanoma
LXFL 529 NSCLC = system: LXFL 529 NSCLC
OVCAR-4 ovarian = system: OVCAR-4 ovarian
SK-MEL-2 melanoma = system: SK-MEL-2 melanoma
SK-MEL-28 melanoma = system: SK-MEL-28 melanoma
SK-OV-3 ovarian = system: SK-OV-3 ovarian
SNB-75 CNS = system: SNB-75 CNS
T-47D breast = system: T-47D breast

Compound | TGI (DMS 114 small cell lung) [µM] | TGI (DMS 273 small cell lung) [µM] | TGI (LOX IMVI melanoma) | TGI (LXFL 529 NSCLC) [µM] | TGI (OVCAR-4 ovarian) | TGI (SK-MEL-2 melanoma) [µM] | TGI (SK-MEL-28 melanoma) | TGI (SK-OV-3 ovarian) | TGI (SNB-75 CNS) | GI50 (LOX IMVI melanoma) | GI50 (OVCAR-4 ovarian) | GI50 (SK-MEL-2 melanoma) [µM] | GI50 (SK-MEL-28 melanoma) | GI50 (SK-OV-3 ovarian) | GI50 (SNB-75 CNS) | GI50 (T-47D breast) | TGI (T-47D breast)
COC1=CC(O)(CC(N)=O)c2ccccc2C1=O (centres undefined) | > 100 | > 100 | > 100 µM | > 100 | > 100 µM | > 100 | > 100 µM | > 100 µM | > 100 µM | – | – | – | – | – | – | – | –
Cc1ccc(NC(=O)c2cccc([N+](=O)[O-])c2O)c([N+](=O)[O-])c1 | 25.7 | 26.2 | 25.1 µM | 27.9 | 27 µM | – | 32 µM | 57.8 µM | 29.4 µM | – | – | – | – | – | – | – | –
CC1/C=C/C=C/C=C/C=C/C=C/C=C/C=C/C(O[C@@H]2O[C@H](C)[C@H](O)[C@@H](O)[C@@H]2N)CC(O)C(C(=O)O)C(O)CC(=O)CC(O)CC(O)CC(O)CC(=O)CCCC(=O)CC(=O)OC1C(C)CC(C)C(O)CC(=O)c1ccc(N)cc1 (some centres undefined) | – | – | 0.101 µM and 0.305 µM | – | 0.154 µM and 0.697 µM | 0.813 | 0.108 µM and 0.356 µM | 0.119 µM and 0.908 µM | 0.12 µM and 0.787 µM | 0.0555 µM and 0.166 µM | 0.0693 µM and 0.246 µM | 0.267 | 0.0622 µM and 0.189 µM | 0.0674 µM and 0.298 µM | 0.0596 µM and 0.242 µM | 0.0722 µM and 0.318 µM | 0.188 µM and 1.24 µM
N/N=C1\C(=O)N(C2CCCCC2)C(=O)C1C(=O)NC1CCCCC1 (centres undefined) | > 100 | – | > 100 µM | > 100 | > 100 µM | 74.7 | > 100 µM | > 100 µM | > 100 µM | – | – | – | – | – | – | – | –
COc1ccc(C2=NNC(=O)OC2c2ccccc2)cc1 (centres undefined) | > 100 | – | > 100 µM | > 100 | > 100 µM | > 100 | > 100 µM | – | > 100 µM | – | – | – | – | – | – | – | –
NC(=O)C1=NNc2ccccc2C(=O)N1c1ccccc1 | – | – | > 100 µM | – | > 100 µM | > 100 | > 100 µM | > 100 µM | > 100 µM | – | – | – | – | – | – | – | > 100 µM
COc1ccc(/C(=N/NC(=O)NN)C(c2ccc(OC)cc2)C2(O)CNc3c(Cl)cc(Cl)cc32)cc1 (centres undefined) | > 100 | – | > 100 µM | > 100 | > 100 µM | > 100 | > 100 µM | > 100 µM | > 100 µM | – | – | – | – | – | – | – | –
CCOC(=O)C(=O)Nc1c(F)cc(F)cc1Br | > 100 | – | > 100 µM | > 100 | > 100 µM | > 100 | > 100 µM | > 100 µM | > 100 µM | – | – | – | – | – | – | – | –
CCOC(=O)N1CCc2cc(OC)c(OC)c3c2C1CC3=O (centres undefined) | > 100 | > 100 | > 100 µM | > 100 | > 100 µM | > 100 | – | > 100 µM | > 100 µM | – | – | – | – | – | – | – | –
Cc1cc2cc3cc(C)c(N(C)C)cc3nc2cc1N(C)C | – | – | 78 µM | – | 19.5 µM | 75.7 | 9.55 µM | 25.4 µM | 20.1 µM | 3.33 µM | 2.25 µM | 4.02 | 2.8 µM | 2.87 µM | 2.35 µM | 1.6 µM | > 100 µM
CC(C)C1OC(=O)C=C1Sc1ccccc1 (centres undefined) | – | – | > 100 µM | – | > 100 µM | > 100 | > 100 µM | > 100 µM | > 100 µM | – | – | – | – | – | – | – | > 100 µM
CCN(CC)c1cc(/C=C/c2ccc(OC)c(OC)c2)nc2cc(F)c(F)cc12 | – | – | 37.7 µM | – | > 100 µM | 3.45 | > 100 µM | 4.54 µM | 2.89 µM | 7.24 µM | 27 µM | 1.83 | 14.9 µM | 1.98 µM | 1.39 µM | 3.38 µM | 18.4 µM
C=C(C)[C@@H]1CC[C@]2(C)[C@H](C(=O)C=C3[C@@H]4C[C@](C)(C(=O)N5CCN(C)CC5)CC[C@]4(C)CC[C@]32C)[C@@]1(C)CCC#N | – | – | 12.6 µM | – | 13.6 µM | 14.8 | 13.8 µM | 12.5 µM | 15.8 µM | 6.24 µM | 6.21 µM | 7.57 | 7.23 µM | 6.03 µM | 7.52 µM | 4.42 µM | 13.4 µM
CC(C)CCOc1ccc(-c2n[nH]c(C(F)(F)F)c2-c2cncc(C#N)c2)c(O)c1 | – | – | 8.98 µM | – | > 100 µM | 5.3 | > 100 µM | 6.6 µM | 14.6 µM | 2.77 µM | 3.48 µM | 1.75 | 2.17 µM | 2.2 µM | 2.77 µM | 1.56 µM | 6.54 µM
Cc1nc2sccn2c(=O)c1CCN1CCC(=C(c2ccc(F)cc2)c2ccc(F)cc2)CC1 | – | – | 22.9 µM | – | 27.9 µM | 32.2 | 26.9 µM | 30.7 µM | 28.7 µM | 8.18 µM | 12.6 µM | 16.8 | 13.4 µM | 16.3 µM | 14.5 µM | 11.7 µM | 28.9 µM
